The results in this text go back to US20260265238A1, “COMPOUNDS AND PHARMACEUTICAL COMPOSITIONS THAT DEGRADE SWI/SNF-RELATED MATRIX-ASSOCIATED ACTIN-DEPENDENT REGULATOR OF CHROMATIN SUBFAMILY A” (Plexium, Inc., priority 2023, published 2026).

Some results are limits rather than exact numbers.

Test [1] deals with T1, SMARCA2-HiBiT HeLa cells (protein which is expressed from the SMARCA2 gene) (Homo sapiens, UniProt P51531).
T1 construct: protein which is expressed from the SMARCA2 and SMARCA4 genes; host or cells: HeLa (SMARCA2-HiBiT engineered line)
Nature of the test: SMARCA2 degradation assay (HiBiT-fusion HeLa cell line, 24 h, luminescence). The test is classed as cell-based. Summed up: (§1)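 SMARCA2- or SMARCA4-HiBiT HeLa cells seeded overnight at 37° C, then given compound as a 10-point dilution (typically 10 μM to 300 pM) for 24 h at 37° C. Protein level read by HiBiT lytic detection luminescence; DC50 from dose-response curves; degradation also scored at 1 μM.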
(In general: HiBiT is a short tag that completes a luciferase, so light tracks the accessible tagged protein.)

For test [2], the target named is T2, SMARCA4-HiBiT HeLa cells (protein which is expressed from the SMARCA4 gene) (Homo sapiens, UniProt P51532).
T2 construct: protein which is expressed from the SMARCA2 and SMARCA4 genes; host or cells: HeLa (SMARCA4-HiBiT engineered line)
Briefly: SMARCA4 degradation assay (HiBiT-fusion HeLa cell line, 24 h, luminescence). The test is classed as cell-based. The procedure, abridged: as §1

T1 sequence (P51531 whole entry): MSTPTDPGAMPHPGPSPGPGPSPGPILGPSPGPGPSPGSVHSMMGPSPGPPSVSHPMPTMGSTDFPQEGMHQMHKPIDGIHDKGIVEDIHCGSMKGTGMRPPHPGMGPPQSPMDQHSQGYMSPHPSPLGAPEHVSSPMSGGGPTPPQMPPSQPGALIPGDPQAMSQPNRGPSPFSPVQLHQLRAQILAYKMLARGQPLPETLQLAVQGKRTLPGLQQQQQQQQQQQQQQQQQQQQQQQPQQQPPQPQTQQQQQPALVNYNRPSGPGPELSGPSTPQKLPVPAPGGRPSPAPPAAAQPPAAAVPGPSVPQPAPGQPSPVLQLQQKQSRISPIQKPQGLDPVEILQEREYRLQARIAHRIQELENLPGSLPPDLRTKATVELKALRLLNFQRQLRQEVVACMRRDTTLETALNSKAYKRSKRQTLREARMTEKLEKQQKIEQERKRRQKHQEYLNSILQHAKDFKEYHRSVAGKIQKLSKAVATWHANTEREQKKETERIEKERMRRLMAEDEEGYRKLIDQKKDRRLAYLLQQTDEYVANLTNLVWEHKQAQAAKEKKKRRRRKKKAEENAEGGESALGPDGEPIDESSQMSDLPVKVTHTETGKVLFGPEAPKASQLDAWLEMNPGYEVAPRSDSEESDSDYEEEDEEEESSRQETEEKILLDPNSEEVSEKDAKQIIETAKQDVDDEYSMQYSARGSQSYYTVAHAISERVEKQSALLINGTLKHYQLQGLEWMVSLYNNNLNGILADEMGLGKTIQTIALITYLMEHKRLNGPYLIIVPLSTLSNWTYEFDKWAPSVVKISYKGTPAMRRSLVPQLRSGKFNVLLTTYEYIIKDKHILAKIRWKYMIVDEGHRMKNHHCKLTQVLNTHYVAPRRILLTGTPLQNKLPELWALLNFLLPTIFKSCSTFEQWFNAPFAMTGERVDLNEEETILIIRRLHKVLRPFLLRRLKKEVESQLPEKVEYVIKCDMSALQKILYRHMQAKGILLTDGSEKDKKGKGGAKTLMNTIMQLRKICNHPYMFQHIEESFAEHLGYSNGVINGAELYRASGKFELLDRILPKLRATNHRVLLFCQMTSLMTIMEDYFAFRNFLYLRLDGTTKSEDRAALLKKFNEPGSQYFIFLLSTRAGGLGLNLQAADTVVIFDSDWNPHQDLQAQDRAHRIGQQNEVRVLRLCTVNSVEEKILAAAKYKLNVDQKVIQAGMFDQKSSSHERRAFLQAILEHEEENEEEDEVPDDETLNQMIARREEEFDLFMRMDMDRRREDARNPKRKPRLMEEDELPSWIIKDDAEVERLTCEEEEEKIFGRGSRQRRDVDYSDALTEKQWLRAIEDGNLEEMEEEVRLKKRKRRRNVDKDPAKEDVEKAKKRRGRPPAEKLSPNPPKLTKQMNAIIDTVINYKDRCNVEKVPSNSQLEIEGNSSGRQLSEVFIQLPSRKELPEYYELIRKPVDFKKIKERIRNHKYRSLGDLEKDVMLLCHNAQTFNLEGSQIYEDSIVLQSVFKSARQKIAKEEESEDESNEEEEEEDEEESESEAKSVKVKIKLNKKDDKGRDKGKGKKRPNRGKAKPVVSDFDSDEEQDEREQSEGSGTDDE
T2 sequence (P51532 whole entry): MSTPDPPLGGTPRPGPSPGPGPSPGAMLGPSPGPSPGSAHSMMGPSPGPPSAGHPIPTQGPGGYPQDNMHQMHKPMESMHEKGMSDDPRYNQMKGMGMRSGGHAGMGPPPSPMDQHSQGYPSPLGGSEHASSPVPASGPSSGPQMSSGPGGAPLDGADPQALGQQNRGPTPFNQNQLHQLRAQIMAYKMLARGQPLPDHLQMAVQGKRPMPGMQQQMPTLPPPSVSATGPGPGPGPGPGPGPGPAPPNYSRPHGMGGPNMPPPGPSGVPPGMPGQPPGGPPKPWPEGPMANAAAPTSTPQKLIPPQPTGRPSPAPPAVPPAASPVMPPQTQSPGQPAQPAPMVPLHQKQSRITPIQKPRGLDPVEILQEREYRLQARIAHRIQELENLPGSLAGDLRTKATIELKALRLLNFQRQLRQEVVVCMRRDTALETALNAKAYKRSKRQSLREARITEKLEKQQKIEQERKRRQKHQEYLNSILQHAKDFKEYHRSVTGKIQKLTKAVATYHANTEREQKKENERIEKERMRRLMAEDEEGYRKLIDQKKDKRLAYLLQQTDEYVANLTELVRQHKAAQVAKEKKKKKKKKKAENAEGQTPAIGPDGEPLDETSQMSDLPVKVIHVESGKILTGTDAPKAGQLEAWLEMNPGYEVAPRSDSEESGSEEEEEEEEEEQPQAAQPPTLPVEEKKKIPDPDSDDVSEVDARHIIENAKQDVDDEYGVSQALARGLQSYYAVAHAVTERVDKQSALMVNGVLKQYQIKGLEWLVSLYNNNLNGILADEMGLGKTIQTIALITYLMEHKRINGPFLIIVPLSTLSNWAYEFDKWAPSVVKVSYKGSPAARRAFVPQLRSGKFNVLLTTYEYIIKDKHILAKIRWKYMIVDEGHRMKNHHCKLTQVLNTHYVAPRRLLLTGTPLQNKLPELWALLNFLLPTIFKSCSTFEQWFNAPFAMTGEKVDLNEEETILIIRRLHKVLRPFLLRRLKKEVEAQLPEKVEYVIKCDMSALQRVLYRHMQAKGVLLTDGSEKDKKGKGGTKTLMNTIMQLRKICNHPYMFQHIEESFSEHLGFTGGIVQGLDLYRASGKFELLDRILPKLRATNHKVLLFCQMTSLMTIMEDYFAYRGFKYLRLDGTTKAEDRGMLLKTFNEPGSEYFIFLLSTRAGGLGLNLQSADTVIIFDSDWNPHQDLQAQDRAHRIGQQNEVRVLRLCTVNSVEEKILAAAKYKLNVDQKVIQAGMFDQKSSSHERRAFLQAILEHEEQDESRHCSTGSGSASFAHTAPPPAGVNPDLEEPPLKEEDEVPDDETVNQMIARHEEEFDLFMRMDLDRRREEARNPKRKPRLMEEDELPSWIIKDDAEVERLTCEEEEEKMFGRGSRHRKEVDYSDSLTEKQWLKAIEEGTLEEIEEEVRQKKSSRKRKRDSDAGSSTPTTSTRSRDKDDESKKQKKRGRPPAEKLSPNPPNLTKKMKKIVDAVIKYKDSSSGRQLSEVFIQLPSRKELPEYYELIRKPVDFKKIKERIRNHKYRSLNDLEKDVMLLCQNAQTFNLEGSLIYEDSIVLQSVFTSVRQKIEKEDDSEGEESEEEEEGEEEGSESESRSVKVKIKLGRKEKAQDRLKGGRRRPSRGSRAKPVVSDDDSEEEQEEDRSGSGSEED

For the molecule `CC(C)(C)OC(=O)N1CCN(CC#Cc2nccc(N3CCCN(c4cc(-c5ccccc5O)nnc4N)CC3)n2)CC1` [Compound P-143, tert-butyl 4-(3-(4-(4-(3-amino-6-(2-hydroxyphenyl)pyridazin-4-yl)-1,4-diazepan-1-yl)pyrimidin-2-yl)prop-2-yn-1-yl)piperazine-1-carboxylate], in test [1], the DC50 – broadly, the concentration at which degradation of the target reaches its halfway point – was in the range of 50 to 500 nM and the “SMARCA2 % Degradation @ 1 μM” value was “+++ (+++=>70%)”. In addition, in test [2], the DC50 was in the range of 50 to 500 nM and the inhibition (commonly how much of the control response was suppressed) at 1 µM lay within 30 to 70%.

On to `Nc1nnc(-c2ccccc2O)cc1N1CCCN(c2ccnc(C#CCn3ccnn3)n2)CC1` [Compound P-144, 2-(5-(4-(2-(3-(1H-1,2,3-triazol-1-yl)prop-1-yn-1-yl)pyrimidin-4-yl)-1,4-diazepan-1-yl)-6-aminopyridazin-3-yl)phenol], for which, in test [1], the DC50 was in the range of 50 to 500 nM and the “SMARCA2 % Degradation @ 1 μM” value is “+++ (+++=>70%)”. In test [2], this molecule showed a DC50 of 50 to 500 nM and an inhibition at 1 µM of 30 to 70%.

Consider `Nc1nnc(-c2ccccc2O)cc1N1CCCN(c2ccnc(C#CCn3ccnc3)n2)CC1` [Compound P-145, 2-(5-(4-(2-(3-(1H-imidazol-1-yl)prop-1-yn-1-yl)pyrimidin-4-yl)-1,4-diazepan-1-yl)-6-aminopyridazin-3-yl)phenol], for which, in test [1], the DC50 was in the range of 50 to 500 nM and the “SMARCA2 % Degradation @ 1 μM” value is “+++ (+++=>70%)”. Moreover, in test [2], the DC50 fell in the range of 50 to 500 nM and the inhibition at 1 µM lay within 30 to 70%.

In the case of `Nc1nnc(-c2ccccc2O)cc1N1CCCN(c2ccnc(C#CCN3CCn4nccc4C3)n2)CC1` [Compound P-146, 2-(6-amino-5-(4-(2-(3-(6,7-dihydropyrazolo[1,5-a]pyrazin-5(4H)-yl)prop-1-yn-1-yl)pyrimidin-4-yl)-1,4-diazepan-1-yl)pyridazin-3-yl)phenol], in test [1], the DC50 was 50 to 500 nM and the “SMARCA2 % Degradation @ 1 μM” value is recorded as “+++ (+++=>70%)”. Further, in test [2], the DC50 was in the range of 50 to 500 nM and the inhibition at 1 µM lay within 30 to 70%.

For `CNCC#Cc1nccc(N2CCCN(c3cc(-c4ccccc4O)nnc3N)CC2)n1` [Compound P-147, 2-(6-amino-5-(4-(2-(3-(methylamino)prop-1-yn-1-yl)pyrimidin-4-yl)-1,4-diazepan-1-yl)pyridazin-3-yl)phenol], in test [1], the DC50 lay in the range of 50 to 500 nM and the “SMARCA2 % Degradation @ 1 μM” value is “++ (++=30-70%)”. In test [2], this molecule had a DC50 of 50 to 500 nM and an inhibition at 1 µM of 30 to 70%.

With `Nc1nnc(-c2ccccc2O)cc1N1CCCN(c2ccnc(C#CCn3cncn3)n2)CC1` [Compound P-148, 2-(5-(4-(2-(3-(1H-1,2,4-triazol-1-yl)prop-1-yn-1-yl)pyrimidin-4-yl)-1,4-diazepan-1-yl)-6-aminopyridazin-3-yl)phenol], in test [1], the DC50 was in the range of 50 to 500 nM and the “SMARCA2 % Degradation @ 1 μM” value was “+++ (+++=>70%)”. Besides, in test [2], the DC50 lay in the range of 50 to 500 nM and the inhibition at 1 µM fell in the range of 30 to 70%.

Take `Nc1nnc(-c2ccccc2O)cc1N1CCCN(c2ccnc(C#CCn3cccn3)n2)CC1` [Compound P-149, 2-(5-(4-(2-(3-(1H-pyrazol-1-yl)prop-1-yn-1-yl)pyrimidin-4-yl)-1,4-diazepan-1-yl)-6-aminopyridazin-3-yl)phenol]: the DC50 in test [1] and in test [2] was 50 to 500 nM each time. The inhibition at 1 µM in test [2] lay in the range of 30 to 70%.

Regarding `Nc1nnc(-c2ccccc2O)cc1N1CCCN(c2ccnc(C#CCn3cnc4ccccc43)n2)CC1` [Compound P-150, 2-(5-(4-(2-(3-(1H-benzo[d]imidazol-1-yl)prop-1-yn-1-yl)pyrimidin-4-yl)-1,4-diazepan-1-yl)-6-aminopyridazin-3-yl)phenol], the DC50 in test [1] and in test [2] was 50 to 500 nM throughout. The inhibition at 1 µM in test [2] lay in the range of 30 to 70%.

`Nc1nnc(-c2ccccc2O)cc1N1CCCN(c2ccnc(C#CCn3ccc4ccccc43)n2)CC1` [Compound P-151, 2-(5-(4-(2-(3-(1H-indol-1-yl)prop-1-yn-1-yl)pyrimidin-4-yl)-1,4-diazepan-1-yl)-6-aminopyridazin-3-yl)phenol]: in test [1], the DC50 is 50 to 500 nM and the “SMARCA2 % Degradation @ 1 μM” value is recorded as “++ (++=30-70%)”. In test [2], this molecule gave a DC50 of 50 to 500 nM and an inhibition at 1 µM of 30 to 70%.

Regarding `CN(C)CC#Cc1nccc(N2CCCN(c3cc(-c4ccccc4O)nnc3N)CC2)n1` [Compound P-152, 2-(6-amino-5-(4-(2-(3-(dimethylamino)prop-1-yn-1-yl)pyrimidin-4-yl)-1,4-diazepan-1-yl)pyridazin-3-yl)phenol], in test [1], the DC50 was 50 to 500 nM and the “SMARCA2 % Degradation @ 1 μM” value is “+++ (+++=>70%)”. Also, in test [2], the DC50 is 50 to 500 nM and the inhibition at 1 µM lay in the range of 30 to 70%.

For the molecule `CC(=O)N(C)C/C=C/c1nccc(N2CCN(c3cc(-c4ccccc4O)nnc3N)CC[C@H]2C)n1` [Compound P-153, N-[3-(4-{(R)-4-[3-amino-6-(o-hydroxyphenyl)-4-pyridazinyl]-7-methyl-1,4-diazepan-1-yl}-2-pyrimidinyl)-2-propenyl]-N-methylacetamide], in test [1], the DC50 lay within 50 to 500 nM and the “SMARCA2 % Degradation @ 1 μM” value is recorded as “++ (++=30-70%)”. Further, in test [2], the DC50 lay in the range of 50 to 500 nM and the inhibition at 1 µM was in the range of 30 to 70%.

Turning to `C[C@@H]1CCN(c2cc(-c3ccccc3O)nnc2N)CCN1c1ccnc(C#CCN(C)CCF)n1` [Compound P-154, o-{5-[(R)-4-(2-{3-[(2-fluoroethyl)-N-methylamino]-1-propynyl}-4-pyrimidinyl)-5-methyl-1,4-diazepan-1-yl]-6-amino-3-pyridaziny1} phenol], in test [1], the DC50 lay in the range of 50 to 500 nM and the “SMARCA2 % Degradation @ 1 μM” value is reported as “++ (++=30-70%)”. Besides, in test [2], the DC50 lay in the range of 50 to 500 nM and the inhibition at 1 µM is < 30%.

As to `C[C@@H]1CCN(c2cc(-c3ccccc3O)nnc2N)CCN1c1ccnc(C#CCN(C)CC(F)F)n1` [Compound P-155, o-{5-[(R)-4-(2-{3-[(2,2-difluoroethyl)-N-methylamino]-1-propynyl}-4-pyrimidinyl)-5-methyl-1,4-diazepan-1-yl]-6-amino-3-pyridazinyl}phenol], in test [1], the DC50 lay within 50 to 500 nM and the “SMARCA2 % Degradation @ 1 μM” value is “++ (++=30-70%)”. Besides, in test [2], the DC50 was 50 to 500 nM and the inhibition at 1 µM fell in the range of 30 to 70%.

In the case of `CN(C)CC#Cc1nccc(N2C[C@H]3CC[C@@H](C2)[C@H]3Oc2cc(-c3ccccc3O)nnc2N)n1` [Compound P-156, o-{5-[(1R,5S,8r)-3-{2-[3-(dimethylamino)-1-propynyl]-4-pyrimidinyl}-3-azabicyclo[3.2.1]oct-8-yloxy]-6-amino-3-pyridazinyl}phenol], in test [1], the DC50 was 50 to 500 nM and the “SMARCA2 % Degradation @ 1 μM” value is listed as “++ (++=30-70%)”. In test [2], the DC50 lay in the range of 500 to 5000 nM and the inhibition at 1 µM was < 30%.

Take `CN(C)CC#Cc1nccc(N2C3CCC2CN(c2cc(-c4ccccc4O)nnc2N)CC3)n1` (stereo not drawn) [Compound P-157, o-[6-amino-5-(9-{2-[3-(dimethylamino)-1-propynyl]-4-pyrimidinyl}-3,9-diazabicyclo[4.2.1]non-3-yl)-3-pyridazinyl]phenol]: in test [1], the DC50 was < 50 nM and the “SMARCA2 % Degradation @ 1 μM” value is “++ (++=30-70%)”. In test [2], the DC50 was in the range of 50 to 500 nM and the inhibition at 1 µM fell in the range of 30 to 70%.

`C/C=C/c1nccc(N2CCCN(c3cc(-c4ccccc4O)nnc3N)CC2)n1` [Compound P-158, o-(6-amino-5-{4-[2-(1-propenyl)-4-pyrimidinyl]-1,4-diazepan-1-yl}-3-pyridazinyl)phenol]: in test [1], the DC50 was in the range of 50 to 500 nM and the “SMARCA2 % Degradation @ 1 μM” value was “??”. In test [2], this molecule gave a DC50 of 50 to 500 nM and an inhibition at 1 µM of 30 to 70%.

`COC/C=C/c1nccc(N2CCCN(c3cc(-c4ccccc4O)nnc3N)CC2)n1` [Compound P-159, o-(6-amino-5-{4-[2-(3-methoxy-1-propenyl)-4-pyrimidinyl]-1,4-diazepan-1-yl}-3-pyridazinyl)phenol]: in test [1], the DC50 was 50 to 500 nM and the “SMARCA2 % Degradation @ 1 μM” value is given as “+++ (+++=>70%)”. In test [2], this molecule came in with a DC50 of 50 to 500 nM and an inhibition at 1 µM of 30 to 70%.

On to `C[C@@H]1CCN(c2cc(-c3ccccc3O)nnc2N)CCN1c1ccnc(C#CCN2C3CCC2COC3)n1` [Compound P-160, o-{5-[(R)-5-methyl-4-(2-{3-(3-oxa-8-azabicyclo[3.2.1]oct-8-yl)-1-propynyl}-4-pyrimidinyl)-1,4-diazepan-1-yl]-6-amino-3-pyridazinyl}phenol], for which, in test [1], the DC50 fell in the range of 50 to 500 nM and the “SMARCA2 % Degradation @ 1 μM” value is on record as “+++ (+++=>70%)”. In addition, in test [2], the DC50 is 50 to 500 nM and the inhibition at 1 µM was in the range of 30 to 70%.

For the molecule `COCC1CN(CC#Cc2nccc(N3CCN(c4cc(-c5ccccc5O)nnc4N)CC[C@H]3C)n2)CCO1` (stereo partly drawn) [Compound P-161, o-{5-[(R)-4-(2-{3-[2-(methoxymethyl)-4-morpholinyl]-1-propynyl}-4-pyrimidinyl)-5-methyl-1,4-diazepan-1-yl]-6-amino-3-pyridazinyl}phenol], in test [1], the DC50 was in the range of 50 to 500 nM and the “SMARCA2 % Degradation @ 1 μM” value is recorded as “++ (++=30-70%)”. Further, in test [2], the DC50 was 50 to 500 nM and the inhibition at 1 µM fell in the range of 30 to 70%.

With `COCC1COCCN1CC#Cc1nccc(N2CCN(c3cc(-c4ccccc4O)nnc3N)CC[C@H]2C)n1` (stereo partly drawn) [Compound P-162, o-{5-[(R)-4-(2-{3-[3-(mcthoxymcthyl)-4-morpholinyl]-1-propynyl}-4-pyrimidinyl)-5-methyl-1,4-diazepan-1-yl]-6-amino-3-pyridazinyl}phenol], in test [1], the DC50 is 50 to 500 nM and the “SMARCA2 % Degradation @ 1 μM” value is on record as “++ (++=30-70%)”. In test [2], this molecule had a DC50 of 50 to 500 nM and an inhibition at 1 µM of 30 to 70%.
